Legend:
[1] = target: T1, PDE4B (human recombinant) (Homo sapiens, UniProt Q07343); experiment: Inhibition of PDE4B activity (FP and/or SPA assay); type: biochemical; conditions: generally FP assay; one reading or average of n readings; read-out: PDE4B pIC50 (generally in FP assay) (±about 0.5) (converted)
T1 construct: made in house; host or cells: Saccharomyces cerevisiae strain GL62 (PDE-deficient yeast)
Excerpt: Human recombinant PDE4B, in particular the 2B splice variant thereof (HSPDE4B2B), is disclosed in WO 94/20079 and also M. M. McLaughlin et al., “A low Km, rolipram-sensitive, cAMP-specific phosphodiesterase from human brain: cloning and expression of cDNA, biochemical characterisation of recombinant protein, and tissue distribution of mRNA”, J. Biol. Chem., 1993, 268, 6470-6476. For example, in Example 1 of WO 94/20079, human recombinant PDE4B is described as being expressed in the PDE-deficient yeast Saccharomyces cerevisiae strain GL62, e.g. after induction by addition of 150 uM CuSO4, and 100,000×g supernatant fractions of yeast cell lysates are described for use in the harvesting of PDE4B enzyme.
The ability of compounds to inhibit catalytic activity at PDE4B or 4D (human recombinant), PDE3 (from bovine aorta), PDE5 (human recombinant) or PDE6 (from bovine retina) can optionally be determined by Scintillation Proximity Assay (SPA) in a 96-well format.
Test compounds (as a solution in DMSO, suitably about 2 microlitre (ul) volume of DMSO solution) are preincubated at ambient temperature (room temperature, e.g. 19-23° C.) in Wallac Isoplates (code 1450-514) with PDE enzyme in 50 mM Tris-HCl buffer pH 7.5, 8.3 mM MgCl2, 1.7 mM EGTA, 0.05% (w/v) bovine serum albumin for 10-30 minutes (usually 30 minutes). The enzyme concentration is adjusted so that no more than 20% hydrolysis of the substrate defined below occurs in control wells without compound, during the incubation. For the PDE3, PDE4B and PDE4D assays, [5′,8-^3H]Adenosine 3′,5′-cyclic phosphate (Amersham Pharmacia Biotech, code TRK.559; or Amersham Biosciences UK Ltd, Pollards Wood, Chalfont St Giles, Buckinghamshire HP8 4SP, UK) is added to give 0.05uCi per well and about 10 nM final concentration. For the PDE5 and PDE6 assays, [8^−3H]Guanosine 3′,5′-cyclic phosphate (Amersham Pharmacia Biotech, code TRK.392) is added to give 0.05uCi per well and about 36 nM final concentration. Plates containing assay mixture, suitably approx. 100 ul volume of assay mixture, are mixed on an orbital shaker for 5 minutes and incubated at ambient temperature for 1 hour. Phosphodiesterase SPA beads (Amersham Pharmacia Biotech, code RPNQ 0150) are added (about 1 mg per well) to terminate the assay. Plates are sealed and shaken and allowed to stand at ambient temperature for 35 minutes to 1 hour (suitably 35 minutes) to allow the beads to settle. Bound radioactive product is measured using a WALLAC TRILUX 1450 Microbeta scintillation counter. For inhibition curves, 10 concentrations (e.g. 1.5 nM-30 uM) of each compound are assayed. Curves are analysed using ActivityBase and XLfit (ID Business Solutions Limited, 2 Ocean Court, Surrey Research Park, Guildford, Surrey GU2 7QB, United Kingdom) Results are expressed as pIC50 values.
The ability of compounds to inhibit catalytic activity at PDE4B (human recombinant) or PDE4D (human recombinant) can optionally be determined by IMAP Fluorescence Polarisation (FP) assay (IMAP Explorer kit, available from Molecular Devices Corporation, Sunnydale, Calif., USA; Molecular Devices code: R8062) in 384-well format.
The IMAP FP assay is able to measure PDE activity in an homogenous, non-radioactive assay format. The FP assay uses the ability of immobilised trivalent metal cations, coated onto nanoparticles (tiny beads), to bind the phosphate group of Fl-AMP that is produced on the hydrolysis of fluorescein-labelled (Fl) cyclic adenosine mono-phosphate (Fl-cAMP) to the non-cyclic Fl-AMP form. […] Binding of Fl-AMP product to the beads (coated with the immobilised trivalent cations) slows the rotation of the bound Fl-AMP and leads to an increase in the fluorescence polarisation ratio of parallel to perpendicular light. Inhibition of the PDE reduces/inhibits this signal increase. […]

[2] = system: TNF-α (TNF-alpha) production in human PBMC (peripheral blood mononuclear cells); experiment: Inhibition of TNF-alpha production in human PBMC assay (MSD technology); type: cell-based; conditions: Homo sapiens, PBMC, LPS stimulated, measured and/or mean of n measurements, read-out: PBMC pIC50 (MSD assay), inhibition of TNF-α production (converted)
Experimental: A 96-well plate (96 MicroWell™ Plates Nunclon™Δ-High Flange Design, Fisher Scientific UK, Bishop Meadow Road, Loughborough LE 11 5 RG, Leicestershire, UK) is prepared by initially adding to column 1 ca. 10 mM of test compound dissolved in DMSO. […] The compound is further diluted with DMSO into columns 2 to 9 by 8 successive 3-fold dilutions using the Biomek® FX Laboratory Automation Workstation (Beckman Coulter, Inc., 4300 N. Harbor Boulevard, P.O. Box 3100, Fullerton, Calif. 92834-3100, USA). Column 10 is used as a DMSO negative control (High Signal, 0% response), whilst column 11, which contains 10 mM of the PDE4 inhibitor roflumilast, is used as a positive control (Low Signal, 100% response). About 1 μl (about 1 ul) of compound is transferred to the compound plate using the Biomek® FX.
PBMC cells (peripheral blood mononuclear cells) are prepared from heparinised human blood (using 1% v/v Heparin Sodium 10001 U/ml Endotoxin Free, Leo Laboratories Ltd., Cashel Road, Dublin 12. Ireland, Cat No: PL0043/0149) from normal volunteers using the Accuspin™ System-Histopaque®-1077 essentially (Sigma-Aldrich Company Ltd., The Old Brickyard New Rd, Gillingham, Dorset SP8 4XT, UK). About 20 ml of blood is overlaid onto 15 ml Histopaque® in Accuspin™ tubes. The tube is then centrifuged at about 800 g for ca. 20 minutes. The cells are collected from the interface, washed by centrifugation (ca. 1300 g, ca. 10 minutes) and resuspended in RPMI1640 medium (Low endotoxin RPMI1640 medium, Cat No: 31870-025, Invitrogen Corporation Invitrogen Ltd, 3 Fountain Drive, Inchinnan Business Park, Paisley PA4 9RF, UK) containing 10% foetal calf serum, 1% L-glutamine (Invitrogen Corporation, Cat No: 25030024) and 1% penicillin/streptomycin (Invitrogen Corporation, Cat No: 15140-122). Viable cells are counted by trypan blue staining and diluted to 1×10^6 viable cells/ml. About 50 μl (about 50 ul) of diluted cells and about 75 μl (about 75 ul) of LPS (ca. 1 ng/ml final; Sigma Cat No: L-6386) are added to the compound plate, which is then incubated at 37° C., 5% CO2, for 20 hours.
The supernatant is removed and the concentrations of TNF-α are determined by electrochemiluminescence assay using the Meso Scale Discovery (MSD) technology (Meso Scale Discovery, 9238 Gaither Road, Gaithersburg, Md. 20877, USA). See the “TNF-α (TNF-alpha) MSD Assay” described below for typical details.
For the following Examples, which are compounds of formula (I) or salts thereof, and generally when using the one of the above assays, or a generally similar or generally analogous assay, the measured and/or mean pIC50 values for inhibition of TNF-α (TNF-alpha) production in PBMCs are generally as follows (subject to a possibly-large variability or error):
Using the Biomek FX, 25 μl (25 ul) of MSD Human Serum Cytokine Assay Diluent (Meso Scale Discovery, 9238 Gaither Road, Gaithersburg, Md. 20877) is added to a 96-well High-Bind MSD plate pre-coated with anti-hTNF alpha capture antibody (MA6000) and then incubated for 24 hours at 4° C. to prevent non-specific binding. About 20 μl (ul) of supernatant from the PBMC plate or about 40 μl (ul) of supernatant from the whole blood (WB) plate are then transferred from columns 1-11 to columns 1-11 of the MSD plate using the Biomek FX. About 20 μl (ul) of TNF-α standard (Cat No. 210-TA; R&D Systems Inc., 614 McKinley Place NE, Minneapolis, Minn. 55413, USA) are added to column 12 of the MSD plate to generate a standard calibration curve (about 0 to 30000 pg/ml final).
For the Whole Blood assay, plates are washed after 2 hours shaking with a Skanwasher 300 version B (Skatron Instruments AS. PO Box 8, N-3401 Lier, Norway). About 40 μl (ul) of diluted sulfo-TAG antibody (ca. […] final) is added, the plates are shaken at room temperature for 1 hours, and the plates washed again as above. About 150 μl (ul) of Read Buffer T (2×) is added to the plates, which are then read on a MSD Sector 6000. […]

T1 sequence (Q07343 1-564 isoform Q07343-2): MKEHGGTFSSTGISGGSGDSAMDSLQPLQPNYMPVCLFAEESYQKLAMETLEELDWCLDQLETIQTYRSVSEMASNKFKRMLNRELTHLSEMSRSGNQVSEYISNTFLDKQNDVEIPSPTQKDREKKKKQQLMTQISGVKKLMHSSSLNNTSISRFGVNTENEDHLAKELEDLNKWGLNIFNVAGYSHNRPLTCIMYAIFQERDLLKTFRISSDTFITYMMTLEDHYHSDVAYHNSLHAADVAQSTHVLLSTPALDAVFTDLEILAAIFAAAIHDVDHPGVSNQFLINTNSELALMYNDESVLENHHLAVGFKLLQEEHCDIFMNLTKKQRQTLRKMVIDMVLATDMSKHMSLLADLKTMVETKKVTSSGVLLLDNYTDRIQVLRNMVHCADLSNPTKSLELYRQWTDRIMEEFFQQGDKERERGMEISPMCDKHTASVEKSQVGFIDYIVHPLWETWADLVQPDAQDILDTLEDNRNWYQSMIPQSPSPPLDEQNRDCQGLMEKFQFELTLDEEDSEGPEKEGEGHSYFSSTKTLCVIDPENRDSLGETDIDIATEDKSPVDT

CCc1nc2c(cnn2CC)c(NC2CCN(C(N)=O)CC2)c1CNC(=O)c1ccc(CCCCOCCCCN2CCOCC2)cc1 [Example 23, 4-({1,6-diethyl-5-[({[4-(4-{[4-(4-morpholinyl)butyl]oxy}butyl)phenyl]carbonyl}amino)methyl]-1H-pyrazolo[3,4-b]pyridin-4-yl}amino)-1-piperidinecarboxamide]
IC50 [1]: ~0.0794 nM
IC50 [2]: ~0.631 nM
